This passage reports Ki results from ChEMBL document CHEMBL5727027, “Compounds useful as CCR9 modulators” (2018).

In general, Ki refers to a dissociation constant, usually derived from enzyme kinetics or from competition with a known ligand.

The assay addresses T1, C-C chemokine receptor type 9 (Homo sapiens, UniProt P51686).
T1 sequence (P51686 whole entry): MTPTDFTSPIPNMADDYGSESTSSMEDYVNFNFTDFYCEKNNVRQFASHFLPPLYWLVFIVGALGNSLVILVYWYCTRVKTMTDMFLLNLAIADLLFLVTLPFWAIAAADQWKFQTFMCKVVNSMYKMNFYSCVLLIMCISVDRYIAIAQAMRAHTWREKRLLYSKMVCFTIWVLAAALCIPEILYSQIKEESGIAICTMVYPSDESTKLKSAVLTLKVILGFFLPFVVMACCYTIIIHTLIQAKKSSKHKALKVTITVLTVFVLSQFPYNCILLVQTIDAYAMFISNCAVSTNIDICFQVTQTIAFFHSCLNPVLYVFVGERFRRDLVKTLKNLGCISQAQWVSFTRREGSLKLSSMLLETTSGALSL
Kind of assay: FLIPR Assay: A calcium flux assay was used to determine the ability of the compounds to interfere with the binding between CCR9 and its chemokine ligand (TECK) in Chem1-hCCR9 overexpressing cells. hCCR9 overexpressing cells were seeded (25,000 cells/well) into black Poly-D-Lysine coated clear bottom 96-well plates (BD Biosciences, Cat #356640) and incubated overnight at 37° C./5% CO2 in a humidified incubator. Media was aspirated and cells washed twice with 100 μL assay buffer (1×HBSS, 20 mM HEPES) containing 2.5 mM Probenecid. A 0.3× Fluo-4 NW calcium dye was prepared in assay buffer containing 5 mM Probenecid and stored in the dark. Each well was loaded with 100 μL of 0.3× Fluo-4 NW calcium dye and incubated at 37° C./5% CO2 for 60 minutes and then at room temperature for 30 minutes. A half-log serially diluted concentration response curve was prepared at a 3× final assay concentration for each compound (10 μM-0.1 nM final assay concentration) and 50 μL of the compound then transferred to the cells (150 μL final volume) for 60 minutes prior to stimulation (30 minutes at 37° C./5% CO2 and 30 minutes at room temperature). TECK was diluted to 4× its EC80 in assay buffer (containing 0.1% [w/v] bovine serum albumin [BSA]) and 50 μL dispensed through the fluorometric imaging plate reader (FLIPR) instrument to stimulate the cells (200 μL final volume). […]. The assay is classed as cell-based. Background: Calcium assays in cells follow changes in intracellular calcium, usually with a dye or a luminescent sensor.

Each structure is given as a SMILES string.

With `CC(C)(C)c1ccc(S(=O)(=O)Nc2ccc(C#N)c3c2C(=O)N(Cc2ccc[n+]([O-])c2)C3=O)cc1`, the Ki stood at 84 nM.
